# Measured values taken from publication PMC10688625, “Evaluation of arsenic metabolism and tight junction injury after exposure to arsenite and monomethylarsonous acid using a rat in vitro blood–Brain barrier model” (PLOS ONE, 2023).
# Read-outs that look alike come from different tables or passages of the source.
# Tests used:
# [1] = system: rat in vitro-BBB model; type: cell-based
# [2] = system: claudin-5; type: cell-based, rat
# [3] = system: ZO-1; type: cell-based, rat
# [4] = system: claudin-5; type: cell-based, rat; settings: 2 μM
# [5] = system: ZO-1; type: cell-based, rat; settings: 2 μM
# [6] = system: rat in vitro-BBB model
# [7] = system: rat in vitro-BBB model; settings: 24 h
# [8] = system: mouse brain slices; settings: cited from earlier work
# [9] = mouse, in vivo; cited from earlier work
compound,measurement,setting,value
"C[As](O)O [MMA^III, monomethylarsonous acid]",%TEER,"[1]; 0.1 μM, 6 h",109.7 ± 16.6%
same,%TEER,"[1]; 0.1 μM, 24 h",87.9 ± 13.0%
same,%TEER,"[1]; 1 μM, 6 h",61.6 ± 6.19%
same,%TEER,"[1]; 1 μM, 24 h",45.6 ± 2.09%
same,%TEER,"[1]; 2 μM, 6 h",9.17 ± 4.62%
same,%TEER,"[1]; 2 μM, 24 h",3.31 ± 0.67%
same,Claudin-5/β-actin,"[2]; 0.1 μM, 6 h",30.5 ± 3.26
same,Claudin-5/β-actin ratio for control,"[2]; 0.1 μM, 6 h",0.45 ± 0.19
same,Claudin-5/β-actin,"[2]; 0.1 μM, 24 h",34.1 ± 25.6
same,Claudin-5/β-actin ratio for control,"[2]; 0.1 μM, 24 h",0.37 ± 0.23
same,Claudin-5/β-actin,"[2]; 1 μM, 6 h",25.8 ± 16.7
same,Claudin-5/β-actin ratio for control,"[2]; 1 μM, 6 h",0.35 ± 0.16
same,Claudin-5/β-actin,"[2]; 1 μM, 24 h",14.5 ± 4.52
same,Claudin-5/β-actin ratio for control,"[2]; 1 μM, 24 h",0.16 ± 0.06
same,Claudin-5/β-actin,"[2]; 2 μM, 6 h",9.38 ± 5.97
same,Claudin-5/β-actin ratio for control,"[2]; 2 μM, 6 h",0.16 ± 0.15
same,Claudin-5/β-actin,"[2]; 2 μM, 24 h",4.68 ± 1.30
same,Claudin-5/β-actin ratio for control,"[2]; 2 μM, 24 h",0.05 ± 0.02
same,ZO-1/β-actin,"[3]; 0.1 μM, 6 h",48.7 ± 25.7
same,ZO-1/β-actin ratio for control,"[3]; 0.1 μM, 6 h",0.60 ± 0.25
same,ZO-1/β-actin,"[3]; 0.1 μM, 24 h",41.0 ± 24.5
same,ZO-1/β-actin ratio for control,"[3]; 0.1 μM, 24 h",0.54 ± 0.33
same,ZO-1/β-actin,"[3]; 1 μM, 6 h",44.7 ± 26.2
same,ZO-1/β-actin ratio for control,"[3]; 1 μM, 6 h",0.55 ± 0.26
same,ZO-1/β-actin,"[3]; 1 μM, 24 h",71.6 ± 15.1
same,ZO-1/β-actin ratio for control,"[3]; 1 μM, 24 h",0.93 ± 0.19
same,ZO-1/β-actin,"[3]; 2 μM, 6 h",16.6 ± 5.59
same,ZO-1/β-actin ratio for control,"[3]; 2 μM, 6 h",0.23 ± 0.15
same,ZO-1/β-actin,"[3]; 2 μM, 24 h",28.7 ± 13.3
same,ZO-1/β-actin ratio for control,"[3]; 2 μM, 24 h",0.37 ± 0.15
same,% Claudin-5 Area for control,[4]; 6 h,46.6 ± 12.6%
same,% Claudin-5 Area for control,[4]; 24 h,37.2 ± 11.4%
same,% ZO-1 Area for control,[5]; 6 h,55.0 ± 11.2%
same,% ZO-1 Area for control,[5]; 24 h,59.1 ± 9.76%
same,detection of dimethylarsinous acid as metabolite,[6],no dimethylarsinous acid was detected
same,"fraction oxidized or methylated (converted, detoxified) within the BBB",[6],Approximately 65%
same,Penetration rate (%) DMA^V,[6]; 0–6 h,4.03±0.52%
same,Penetration rate (%) MMA^III,[6]; 0–6 h,7.63±0.79%
same,Penetration rate (%) MMA^V,[6]; 0–6 h,8.27±1.55%
same,percentage of arsenic in total penetration rate: DMA^V,[6]; 0–6 h,(28.5) %
same,Penetration rate (%) DMA^V,[6]; 0–24 h,9.01±0.14%
same,Penetration rate (%) MMA^III,[6]; 0–24 h,13.7±5.09%
same,Penetration rate (%) MMA^V,[6]; 0–24 h,27.9±3.59%
same,percentage of arsenic in total penetration rate: DMA^V,[6]; 0–24 h,(21.4) %
same,Papp of sodium fluorescein,[7]; 0.1 μM,1.90 ± 0.17 x 10-6 cm2/s
same,Papp of sodium fluorescein,[7]; 1 μM,2.78 ± 0.28 x 10-6 cm2/s
same,Na-F values elevated compared to the control group,[7]; 2 μM,approximately 16 fold
same,Papp of sodium fluorescein,[7]; 2 μM,34.0 ± 4.97 x 10-6 cm2/s
O=[As][O-].[Na+] [sodium arsenite],DMA^V formation in mouse brain slices,[8],DMA^V was detected
same,DMA^V in brain tissue,[9],presence of DMA^V
